Results: patent publication US9302999B2, “Substituted triazoles as herbicides” (E. I. DU PONT DE NEMOURS AND COMPANY, priority 2012, dated 2016)

Legend:
[1] = tested on: pigweed (Amaranthus retroflexus); assay: Test A pre-/postemergence: pigweed; type: in vivo
How it was run: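 Pre: directed soil spray after planting in loam + sand. Post: same formulation (non-phytotoxic solvent + surfactant) on 1–2-leaf plants, 2–10 cm. Greenhouse ~10 d; visual injury 0–100 vs untreated.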

rice (Oryza sativa) = assay: Test B flooded paddy: rice; type: in vivo; conditions: Flood; 250 g ai/ha; applied to paddy water at 2-leaf stage; visually evaluated after 13 to 15 days
How it was run: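 At two leaves, seedlings received the test compound via the paddy water, pots having been flooded 3 cm over the soil surface and kept so. Greenhouse-held for 13 to 15 days, then judged by eye against controls on a scale running 0 (no effect) to 100 (complete control).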

[2] = tested on: blackgrass (Alopecurus myosuroides); assay: Test C pre-/postemergence: blackgrass; type: in vivo
How it was run: (§1)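 Visual injury scored 0–100 (100 = complete control) against untreated controls after 13–15 greenhouse days. Surfactant-containing solvent formulations applied either to soil after sowing (loam/sand) or over 1- to 4-leaf plants, 2–18 cm tall.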

[3] = tested on: winter wheat (Triticum aestivum); assay: Test C pre-/postemergence: winter wheat; type: in vivo
How it was run: as §1

wild oat (Avena fatua) = assay: Test C pre-/postemergence: wild oat; type: in vivo; conditions: Postemergence
How it was run: as §1

[4] = tested on: galium (catchweed bedstraw, Galium aparine); assay: Test C pre-/postemergence: galium; type: in vivo
How it was run: as §1

[5] = tested on: morningglory (Ipomoea coccinea); assay: Test C pre-/postemergence: morningglory; type: in vivo
How it was run: as §1

[6] = tested on: nutsedge, yellow (yellow nutsedge, Cyperus esculentus); assay: Test C pre-/postemergence: nutsedge, yellow; type: in vivo
How it was run: as §1

[7] = tested on: pigweed (Amaranthus retroflexus); assay: Test C pre-/postemergence: pigweed; type: in vivo
How it was run: as §1

[8] = tested on: ragweed (common ragweed, Ambrosia elation); assay: Test C pre-/postemergence: ragweed; type: in vivo
How it was run: as §1

Barnyardgrass = assay: Test C preemergence: barnyardgrass; type: in vivo, Echinochloa crus-galli
[9] = Postemergence, 125 g ai/ha, 0 to 100 scale, 0 is no effect, 100 is complete control
[10] = Preemergence, 125 g ai/ha, 0 to 100 scale where 0 is no effect and 100 is complete control
[11] = Preemergence, 500 g ai/ha, 0 to 100 scale (0 no effect, 100 complete control)
[12] = Postemergence, 31 g ai/ha, scale 0 to 100 (0 no effect, 100 complete control)
[13] = Postemergence, 62 g ai/ha, scale 0 to 100 (0 no effect, 100 complete control)
[14] = Postemergence, 125 g ai/ha, scale 0 to 100, 0 no effect, 100 complete control
[15] = Preemergence, 31 g ai/ha, scale 0 (no effect) to 100 (complete control)
[16] = Preemergence, 62 g ai/ha, scale of 0 to 100, 0 is no effect, 100 is complete control
[17] = Preemergence, 125 g ai/ha, scale 0 to 100, 0 no effect, 100 complete control
[18] = Preemergence, 250 g ai/ha, scale 0 to 100, 0 no effect, 100 complete control
[19] = Postemergence, 250 g ai/ha, scale 0 to 100 (0 no effect, 100 complete control)
[20] = 31 g ai/ha, scale 0 to 100 (0 no effect, 100 complete control)
[21] = 62 g ai/ha, scale 0 to 100 (0 no effect, 100 complete control)
[22] = 125 g ai/ha, scale 0 to 100, 0 no effect, 100 complete control
[23] = 62 g ai/ha, scale of 0 to 100, 0 is no effect, 100 is complete control
[24] = Postemergence, 16 g ai/ha, scale 0 to 100, 0 no effect, 100 complete control
[25] = Preemergence, 16 g ai/ha, scale 0 (no effect) to 100 (complete control)
[26] = Preemergence, 31 g ai/ha, scale of 0 to 100, 0 is no effect, 100 is complete control

CCCc1nn(-c2ccc(F)cc2)nc1Oc1ccnc(C(F)(F)F)c1 [Compound 168]
Plant response rating, Pigweed [1, 9]: 100 | Pigweed plant response rating ([1]; Postemergence, 500 g ai/ha, 0 to 100 scale, 0 is no effect, 100 is complete control): 100 | Plant response rating, Pigweed [1, 10]: 100 | Plant response rating, Pigweed [1, 11]: 100 | Plant response rating, Rice (0 to 100 scale, 0 is no effect, 100 is complete control) (rice (Oryza sativa)): 60 | Plant response rating, Blackgrass [2, 12]: 45 | Plant response rating, Blackgrass [2, 13]: 45 | Plant response rating, Blackgrass [2, 14]: 80 | Plant response rating, Blackgrass ([2]; Postemergence, 250 g ai/ha, scale 0 to 100): 80 | Plant response rating, Blackgrass [2, 15]: 90 | Plant response rating, Blackgrass [2, 16]: 90 | Plant response rating, Blackgrass [2, 17]: 95 | Plant response rating, Blackgrass [2, 18]: 98 | Plant response rating, Wheat [3, 12]: 20 | Plant response rating, Wheat [3, 13]: 20 | Plant response rating, Wheat [3, 14]: 35 | Plant response rating, Wheat [3, 19]: 45 | Plant response rating, Wheat [3, 15]: 5 | Plant response rating, Wheat [3, 16]: 40 | Plant response rating, Wheat [3, 17]: 40 | Plant response rating, Wheat [3, 18]: 60 | Plant response rating, Oat, Wild (wild oat (Avena fatua); [20]): 30 | Plant response rating, Oat, Wild (wild oat (Avena fatua); [21]): 45 | Plant response rating, Oat, Wild (wild oat (Avena fatua); [22]): 50 | Plant response rating, Oat, Wild (wild oat (Avena fatua); 250 g ai/ha, scale 0 to 100 (0 no effect, 100 complete control)): 60 | Plant response rating, Galium [4, 12]: 90 | Plant response rating, Galium [4, 13]: 90 | Plant response rating, Galium [4, 14]: 90 | Plant response rating, Galium [4, 19]: 95 | Plant response rating, Galium [4, 15]: 85 | Plant response rating, Galium [4, 16]: 100 | Plant response rating, Galium [4, 17]: 100 | Plant response rating, Galium [4, 18]: 100 | Plant response rating, Morningglory [5, 12]: 50 | Plant response rating, Morningglory [5, 13]: 80 | Plant response rating, Morningglory [5, 14]: 90 | Plant response rating, Morningglory [5, 19]: 90 | Plant response rating, Morningglory [5, 15]: 45 | Plant response rating, Morningglory [5, 16]: 55 | Plant response rating, Morningglory [5, 17]: 55 | Plant response rating, Morningglory [5, 18]: 80 | Plant response rating, Nutsedge, Yellow [6, 12]: 10 | Plant response rating, Nutsedge, Yellow [6, 13]: 10 | Plant response rating, Nutsedge, Yellow [6, 14]: 15 | Plant response rating, Nutsedge, Yellow [6, 19]: 20 | Plant response rating, Nutsedge, Yellow [6, 15]: 0 | Plant response rating, Nutsedge, Yellow [6, 16]: 0 | Plant response rating, Nutsedge, Yellow [6, 17]: 5 | Plant response rating, Nutsedge, Yellow [6, 18]: 5 | Plant response rating, Pigweed [7, 12]: 80 | Plant response rating, Pigweed [7, 13]: 98 | Plant response rating, Pigweed [7, 14]: 98 | Plant response rating, Pigweed [7, 19]: 98 | Plant response rating, Pigweed [7, 15]: 100 | Plant response rating, Pigweed [7, 16]: 100 | Plant response rating, Pigweed [7, 17]: 100 | Plant response rating, Pigweed [7, 18]: 100 | Plant response rating, Ragweed [8, 12]: 65 | Plant response rating, Ragweed [8, 13]: 65 | Plant response rating, Ragweed [8, 14]: 65 | Plant response rating, Ragweed [8, 19]: 80 | Plant response rating, Ragweed [8, 15]: 10 | Plant response rating, Ragweed [8, 16]: 30 | Plant response rating, Ragweed [8, 17]: 80 | Plant response rating, Ragweed [8, 18]: 80 | Plant response rating, Barnyardgrass (Barnyardgrass; 31 g ai/ha, scale 0 (no effect) to 100 (complete control)): 75 | Plant response rating, Barnyardgrass (Barnyardgrass; [23]): 100 | Plant response rating, Barnyardgrass (Barnyardgrass; [22]): 100

FCc1nn(-c2ccc(F)cc2)nc1Oc1ccnc(C(F)(F)F)c1 [Compound 160]
Plant response rating, Pigweed [1, 9]: 100 | Pigweed plant response rating ([1]; Postemergence, 500 g ai/ha, visual rating on 0 to 100 scale (0 no effect, 100 complete control), approximately ten days): 100 | Plant response rating, Pigweed [1, 10]: 100 | Plant response rating, Pigweed [1, 11]: 100 | Plant response rating, Rice (0 to 100 scale, 0 is no effect, 100 is complete control) (rice (Oryza sativa)): 55 | Plant response rating, Blackgrass [2, 24]: 25 | Plant response rating, Blackgrass [2, 12]: 35 | Plant response rating, Blackgrass [2, 13]: 45 | Plant response rating, Blackgrass [2, 14]: 65 | Plant response rating, Blackgrass [2, 25]: 0 | Plant response rating, Blackgrass [2, 26]: 40 | Plant response rating, Blackgrass [2, 16]: 90 | Plant response rating, Blackgrass [2, 17]: 90 | Plant response rating, Wheat [3, 24]: 5 | Plant response rating, Wheat [3, 12]: 5 | Plant response rating, Wheat [3, 13]: 25 | Plant response rating, Wheat [3, 14]: 25 | Plant response rating, Wheat [3, 25]: 0 | Plant response rating, Wheat [3, 16]: 15 | Plant response rating, Wheat [3, 17]: 40 | Plant response rating, Oat, Wild (wild oat (Avena fatua); 16 g ai/ha, scale 0 to 100, 0 no effect, 100 complete control): 15 | Plant response rating, Oat, Wild (wild oat (Avena fatua); [20]): 30 | Plant response rating, Oat, Wild (wild oat (Avena fatua); [21]): 45 | Plant response rating, Oat, Wild (wild oat (Avena fatua); [22]): 60 | Plant response rating, Galium [4, 24]: 55 | Plant response rating, Galium [4, 12]: 80 | Plant response rating, Galium [4, 13]: 85 | Plant response rating, Galium [4, 14]: 95 | Plant response rating, Galium [4, 26]: 5 | Plant response rating, Galium [4, 16]: 100 | Plant response rating, Galium [4, 17]: 100 | Plant response rating, Morningglory [5, 24]: 60 | Plant response rating, Morningglory [5, 12]: 60 | Plant response rating, Morningglory [5, 13]: 98 | Plant response rating, Morningglory [5, 14]: 98 | Plant response rating, Morningglory [5, 25]: 0 | Plant response rating, Morningglory [5, 26]: 5 | Plant response rating, Morningglory [5, 16]: 15 | Plant response rating, Morningglory [5, 17]: 20 | Plant response rating, Nutsedge, Yellow [6, 24]: 5 | Plant response rating, Nutsedge, Yellow [6, 12]: 10 | Plant response rating, Nutsedge, Yellow [6, 13]: 10 | Plant response rating, Nutsedge, Yellow [6, 14]: 15 | Plant response rating, Nutsedge, Yellow [6, 25]: 0 | Plant response rating, Nutsedge, Yellow [6, 26]: 0 | Plant response rating, Nutsedge, Yellow [6, 16]: 0 | Plant response rating, Nutsedge, Yellow [6, 17]: 0 | Plant response rating, Pigweed [7, 24]: 95 | Plant response rating, Pigweed [7, 12]: 95 | Plant response rating, Pigweed [7, 13]: 98 | Plant response rating, Pigweed [7, 14]: 98 | Plant response rating, Pigweed [7, 25]: 90 | Plant response rating, Pigweed [7, 26]: 100 | Plant response rating, Pigweed [7, 16]: 100 | Plant response rating, Pigweed [7, 17]: 100 | Plant response rating, Ragweed [8, 24]: 10 | Plant response rating, Ragweed [8, 12]: 10 | Plant response rating, Ragweed [8, 13]: 40 | Plant response rating, Ragweed [8, 14]: 40 | Plant response rating, Ragweed [8, 25]: 0 | Plant response rating, Ragweed [8, 26]: 0 | Plant response rating, Ragweed [8, 16]: 5 | Plant response rating, Ragweed [8, 17]: 5 | Plant response rating, Barnyardgrass (Barnyardgrass; 16 g ai/ha, scale 0 (no effect) to 100 (complete control)): 5 | Plant response rating, Barnyardgrass (Barnyardgrass; 31 g ai/ha, scale of 0 to 100, 0 is no effect, 100 is complete control): 35 | Plant response rating, Barnyardgrass (Barnyardgrass; [23]): 90 | Plant response rating, Barnyardgrass (Barnyardgrass; [22]): 100
